The term EC50 denotes the concentration giving half of the maximal effect.

The results in this text go back to publication PMC11118832 (Biomolecules, 2024).

Square brackets hold non-standard residues; d marks the D form. Peptide text beside a SMILES is read from it. Phe(4-NH2) = Nc1ccc(C[C@H](N)C(=O)O)cc1; hLeu = CC(C)CC[C@H](N)C(=O)O; Nle = CCCC[C@H](N)C(=O)O; Orn = NCCC[C@H](N)C(=O)O Bounds are passed on as bounds.

The experiment deals with T1, PD-1/PD-L1 (Homo sapiens, UniProt Q15116).
T1 construct: this kit uses ectodomains of PD-1 and PD-L1 that are expressed with orthogonal fusion tags (Tag-1 and Tag-2); purchased CisBio (currently Perkin-Elmer, Bedford, MA)
T1 sequence (Q15116 25-170 limits assumed): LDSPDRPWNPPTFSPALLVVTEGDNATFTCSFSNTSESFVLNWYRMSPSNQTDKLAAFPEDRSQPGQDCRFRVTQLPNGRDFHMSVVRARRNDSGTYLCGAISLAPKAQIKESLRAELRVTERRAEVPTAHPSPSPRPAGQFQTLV
The experiment in a line: In vitro time-resolved FRET PD-1/PD-L1 binding assay (CisBio kit). Conditions: CisBio PD-1/PD-L1 binding kit, TR FRET, 96-well, serial dilutions in triplicate; NI = no inhibition at maximum concentration tested (* 5 μM, ** 50 μM); read-out: EC50 (Supplementary Table S1; inhibition of PD-1/PD-L1 binding by in vitro TR-FRET assay). Here is the method:
Commercial PD-1/PD-L1 binding assay kit (CisBio, currently Perkin-Elmer, Bedford, MA) for time resolve fluorescent energy transfer (FRET) was used to assess peptides binding to PD-1. The assay for peptide screening was performed in a 96-well format (normal pressure), starting with 4-fold serial dilutions of each peptide in triplicate. No-peptide triplicate wells were used to assess fluorescent energy transfer in the absence of inhibition, and no-PD-1/PD-L1 triplicate wells were used to assess the background fluorescent energy transfer in the absence of PD-1/PD-L1 complexes. More detailed concentration dependences were obtained for selected peptides. Only freshly dissolved peptides were used in the assay. Various QSAR (quantitative structure activity relationship) hypotheses were tested by synthesizing batches of 10–12 peptides. In total, over one hundred candidates in ten iterations were screened for their ability to inhibit in vitro PD-1/PD-L1 binding using the commercial PD-1/PD-L1 binding assay kit (CisBio, currently Perkin-Elmer). Briefly, this kit uses ectodomains of PD-1 and PD-L1 that are expressed with orthogonal fusion tags (Tag-1 and Tag-2). It also includes two antibodies to selectively interact with these tags. The antibody against one tag is labeled with fluorescent moiety, which serves as a donor, while the other antibody is labeled with fluorescent moiety, which serves as an acceptor in fluorescent resonance energy transfer (FRET). When the complex is formed and probed with both anti-Tag-1 and anti-Tag-2 antibodies, donor and acceptor are sufficiently close, and FRET can be detected in a time-resolved (TR) manner. Inhibitors of PD-1/PD-L1 interactions prevent complex formation, leading to a decrease in TR FRET in a concentration-dependent manner, as shown in Figure 2 for four representative peptide inhibitors. Initial fourfold dilutions are exemplified by data for peptides B5.11 and B5.6 (panels A and B); examples of the more detailed follow-up concentration dependences are shown for peptides B2.4 and B2.22 (panels C and D). The potency of the inhibitors is then characterized by IC50, a concentration that inhibits TR FRET by 50%, allowing for a facile comparison of different inhibitors (Figure 2E).
(TR-FRET usually uses a lanthanide donor and a delayed reading to cut background.)
On to `CCCC[C@H](NC(=O)[C@@H](NC(=O)[C@@H](N)CCCNC(=N)N)C(C)C)C(=O)N[C@H](C(=O)N[C@@H](Cc1c[nH]c2ccccc12)C(=O)N[C@H](C(=O)NCC(=O)N[C@@H](C)C(=O)N[C@@H](C)C(=O)N[C@@H](Cc1c[nH]c2ccccc12)C(=O)N[C@@H](CC(=O)O)C(=O)N[C@@H](Cc1ccc(O)cc1)C(=O)N[C@@H](CCCCN)C(=O)N[C@@H](Cc1ccc(O)cc1)C(=O)O)C(C)C)C(C)C` [B4.4] (H-RV[Nle]VWVGAAWDYKY-OH; N-terminus and C-terminus assumed), for which the EC50 was above 5 µM.
For `CCCC[C@H](NC(=O)[C@@H](NC(=O)[C@@H](N)CCCNC(=N)N)C(C)C)C(=O)N[C@H](C(=O)N[C@H](C(=O)N[C@H](C(=O)NCC(=O)N[C@@H](C)C(=O)N[C@@H](C)C(=O)N[C@@H](Cc1c[nH]c2ccccc12)C(=O)N[C@@H](CC(=O)O)C(=O)N[C@@H](Cc1ccc(O)cc1)C(=O)N[C@@H](CCCCN)C(=O)O)C(C)C)[C@@H](C)CC)C(C)C` [B4.5] (H-RV[Nle]VIVGAAWDYK-OH; N-terminus and C-terminus assumed), the EC50 is above 5 µM.
On to `CCCC[C@H](NC(=O)[C@@H](NC(=O)[C@H](CCCNC(=N)N)NC(C)=O)C(C)C)C(=O)N[C@@H](CCCNC(=N)N)C(=O)N[C@H](C(=O)N[C@@H](CCC(=O)O)C(=O)NCC(=O)N[C@@H](C)C(=O)N[C@@H](C)C(=O)N[C@@H](Cc1c[nH]c2ccccc12)C(=O)N[C@@H](CC(=O)O)C(=O)N[C@@H](Cc1ccc(O)cc1)C(=O)N[C@@H](CCCCN)C(=O)N[C@@H](Cc1ccc(O)cc1)C(N)=O)[C@@H](C)CC` [B4.6] (Ac-RV[Nle]RIEGAAWDYKY-NH2), for which the EC50 is above 5 µM.
The same measure for `CCCC[C@H](NC(=O)[C@@H](NC(=O)[C@@H](N)CCCNC(=N)N)C(C)C)C(=O)N[C@H](C(=O)N[C@H](C(=O)N[C@H](C(=O)NCC(=O)N[C@@H](C)C(=O)N[C@@H](C)C(=O)N[C@@H](Cc1c[nH]c2ccccc12)C(=O)N[C@@H](CC(=O)O)C(=O)N[C@@H](Cc1ccc(O)cc1)C(=O)N[C@@H](CCCCN)C(=O)N[C@@H](Cc1ccc(O)cc1)C(=O)O)C(C)C)[C@@H](C)CC)C(C)C` [B4.7] (H-RV[Nle]VIVGAAWDYKY-OH; N-terminus and C-terminus assumed): above 5 µM; for `CCCC[C@H](NC(=O)[C@@H](NC(=O)[C@H](CCCC)NC(=O)[C@@H](NC(=O)[C@@H](N)CCCNC(=N)N)C(C)C)C(C)C)C(=O)N[C@H](C(=O)NCC(=O)N[C@@H](C)C(=O)N[C@@H](C)C(=O)N[C@@H](Cc1c[nH]c2ccccc12)C(=O)N[C@@H](CC(=O)O)C(=O)N[C@@H](Cc1ccc(O)cc1)C(=O)N[C@@H](CCCCN)C(=O)N[C@@H](Cc1ccc(O)cc1)C(=O)O)C(C)C` [B4.8] (H-RV[Nle]V[Nle]VGAAWDYKY-OH; N-terminus and C-terminus assumed): above 5 µM.
The value for `CCCC[C@H](NC(=O)[C@@H](NC(=O)[C@H](CCCNC(=N)N)NC(C)=O)C(C)C)C(=O)N[C@H](C(=O)N[C@H](C(=O)N[C@H](C(=O)NCC(=O)N[C@@H](C)C(=O)N[C@@H](CCCN)C(=O)N[C@@H](Cc1c[nH]c2ccccc12)C(=O)N[C@@H](CC(=O)O)C(=O)N[C@@H](Cc1ccc(O)cc1)C(=O)N[C@@H](CCCCN)C(=O)N[C@@H](Cc1ccc(O)cc1)C(N)=O)C(C)C)[C@@H](C)CC)C(C)C` [B4.9] (Ac-RV[Nle]VIVGA[Orn]WDYKY-NH2) was 5 µM.
The same measure for `CCCC[C@H](NC(=O)[C@@H](NC(=O)[C@@H](N)CCCNC(=N)N)C(C)C)C(=O)N[C@H](C(=O)N[C@H](C(=O)N[C@H](C(=O)NCC(=O)N[C@@H](C)C(=O)N[C@@H](C)C(=O)N[C@@H](Cc1c[nH]c2ccccc12)C(=O)N[C@@H](CC(=O)O)C(=O)N[C@@H](Cc1ccc(N)cc1)C(=O)N[C@@H](CCCCN)C(=O)N[C@@H](Cc1ccc(O)cc1)C(=O)O)C(C)C)[C@@H](C)CC)C(C)C` [B4.10] (H-RV[Nle]VIVGAAWD[Phe(4-NH2)]KY-OH; N-terminus and C-terminus assumed): above 5 µM.
Regarding `CCCC[C@H](NC(C)=O)C(=O)N[C@H](C(=O)N[C@@H](Cc1c[nH]c2ccccc12)C(=O)N[C@H](C(=O)NCC(=O)N[C@@H](C)C(=O)N[C@@H](C)C(=O)N[C@@H](Cc1c[nH]c2ccccc12)C(=O)N[C@@H](CC(=O)O)C(=O)N[C@@H](Cc1ccc(O)cc1)C(=O)N[C@@H](CCCCN)C(=O)N[C@@H](Cc1ccc(O)cc1)C(N)=O)C(C)C)C(C)C` [B4.11] (Ac-[Nle]VWVGAAWDYKY-NH2), the EC50 was above 5 µM.
Take `CCCC[C@H](NC(C)=O)C(=O)N[C@H](C(=O)N[C@@H](Cc1c[nH]c2ccccc12)C(=O)N[C@H](C(=O)NCC(=O)N[C@@H](C)C(=O)N[C@@H](C)C(=O)N[C@@H](Cc1c[nH]c2ccccc12)C(=O)N[C@@H](CC(=O)O)C(=O)N[C@@H](CCCNC(=N)N)C(=O)N[C@@H](CCCCN)C(=O)N[C@@H](Cc1ccc(O)cc1)C(N)=O)C(C)C)C(C)C` [B4.12] (Ac-[Nle]VWVGAAWDRKY-NH2): the EC50 is above 5 µM.
The value for `CCCC[C@H](N)C(=O)N[C@H](C(=O)N[C@@H](Cc1c[nH]c2ccccc12)C(=O)N[C@H](C(=O)NCC(=O)N[C@@H](C)C(=O)N[C@@H](C)C(=O)N[C@@H](Cc1c[nH]c2ccccc12)C(=O)N[C@@H](CC(=O)O)C(=O)N[C@@H](CCCNC(=N)N)C(=O)N[C@@H](CCCCN)C(=O)N[C@@H](Cc1ccc(O)cc1)C(=O)O)C(C)C)C(C)C` [B4.13] (H-[Nle]VWVGAAWDRKY-OH; N-terminus and C-terminus assumed) was above 5 µM; that for `CCCC[C@H](N)C(=O)N[C@H](C(=O)N[C@H](C(=O)N[C@H](C(=O)NCC(=O)N[C@@H](C)C(=O)N[C@@H](C)C(=O)N[C@@H](Cc1c[nH]c2ccccc12)C(=O)N[C@@H](CC(=O)O)C(=O)N[C@@H](Cc1ccc(O)cc1)C(=O)N[C@@H](CCCCN)C(=O)N[C@@H](CCCNC(=N)N)C(=O)O)C(C)C)[C@@H](C)CC)C(C)C` [B4.14] (H-[Nle]VIVGAAWDYKR-OH; N-terminus and C-terminus assumed) was above 5 µM.
Regarding `CCCC[C@H](N)C(=O)N[C@H](C(=O)N[C@@H](Cc1c[nH]c2ccccc12)C(=O)N[C@H](C(=O)NCC(=O)N[C@@H](C)C(=O)N[C@@H](C)C(=O)N[C@@H](Cc1c[nH]c2ccccc12)C(=O)N[C@@H](CC(=O)O)C(=O)N[C@@H](Cc1ccc(O)cc1)C(=O)N[C@@H](CCCCN)C(=O)N[C@@H](Cc1ccc(O)cc1)C(=O)O)C(C)C)C(C)C` [B4.15] (H-[Nle]VWVGAAWDYKY-OH; N-terminus and C-terminus assumed), the EC50 was above 5 µM.
The value for `CC[C@H](C)[C@H](NC(=O)[C@H](CCC(C)C)NC(=O)[C@H](CC(=O)O)NC(C)=O)C(=O)N[C@H](C(=O)NCC(=O)N[C@@H](C)C(=O)N[C@@H](C)C(=O)N[C@@H](Cc1c[nH]c2ccccc12)C(=O)N[C@@H](CC(=O)O)C(=O)N[C@@H](Cc1ccc(O)cc1)C(=O)N[C@@H](CCCCN)C(=O)N[C@@H](Cc1ccc(O)cc1)C(N)=O)C(C)C` [B5.3] (Ac-D[hLeu]IVGAAWDYKY-NH2) was above 5 µM; that for `CCCC[C@H](NC(C)=O)C(=O)N[C@H](C(=O)N[C@@H](CC(=O)O)C(=O)N[C@H](C(=O)N[C@H](C(=O)N[C@H](C(=O)NCC(=O)N[C@@H](C)C(=O)N[C@@H](C)C(=O)N[C@@H](Cc1c[nH]c2ccccc12)C(=O)N[C@@H](CC(=O)O)C(=O)N[C@@H](Cc1ccc(O)cc1)C(=O)N[C@@H](CCCCN)C(=O)N[C@@H](Cc1ccc(O)cc1)C(N)=O)C(C)C)[C@@H](C)CC)C(C)C)C(C)C` [B5.5] (Ac-[Nle]VDVIVGAAWDYKY-NH2) was above 5 µM.
